Assay results as given in patent US11304974B2, “Nanosystems comprising silver and antibiotics and their use for the treatment of bacterial infections” (priority 2017, dated 2022).
Where two headings read alike, the source gives them in different places.

What was measured:
[1] = tested on: S. aureus Sa-12 (strain 11); test: Checkerboard synergy test collargol-vancomycin (Example 5); details: Staphylococcus aureus, read-out: MIC (product alone, Checkerboard test)
Procedure: (§3) To determine the existence of synergistic activity between collargol and vancomycin, a checkerboard test using plates having a “U”-shaped bottom (TPP) of 96 wells was used. Double subinhibitory serial dilutions of the two antimicrobials were prepared, so that the concentration of collargol decreased vertically (up-down) and the concentration of vancomycin decreased horizontally (left-right).
(§4) To quantify the synergistic activity of the two combined compounds, the Index fractional inhibitory concentration (IFIC) parameter was used. This index relates MIC of the antimicrobial 1 with the antimicrobial 2 alone and in combination, according to the following formula:
(§5) It is considered that there is synergistic effect if the IFIC value is <0.5.
(§6) The procedure was as follows: • Preparation of fresh cultures of each of the strains on blood agar (37° C., 24 h). […] The well wherein the minimum value of IFIC is obtained is chosen.

[2] = tested on: S. aureus Sa-3 (strain 3); test: as above; details: Staphylococcus aureus, read-out: MIC (product alone, Checkerboard test)
Procedure: as §3, §4, §5, §6

[3] = tested on: S. aureus Sa-11 (strain 10); test: as above; details: Staphylococcus aureus, read-out: MIC (product alone, Checkerboard test)
Procedure: as §3, §4, §5, §6

[4] = tested on: S. epidermidis Se-1 (strain 14); test: as above; details: Staphylococcus epidermidis, read-out: MIC (product alone, Checkerboard test)
Procedure: as §3, §4, §5, §6

[5] = tested on: S. aureus Sa-13 (strain 12); test: Epsilometry E-test, absence and presence of silver (Example 5); type: cell-based; details: Staphylococcus aureus
Procedure: (§1) In order to evaluate the synergy of collargol-antibiotics an epsilometry E-test was carried out. Said test is based on the agar diffusion method and relates to using a strip with a predefined steady gradient of 15 concentrations of the antibiotic being tested. After strain growth, an elliptical inhibition halo, being the MIC the antibiotic concentration corresponding to the cutting point.
(§2) It was performed for the antibiotics vancomycin, linezolid and tedizolid, in absence and presence of silver (½ and 1/10 MIC).

[6] = tested on: S. aureus Sa-11 (strain 10); test: as above; type: cell-based; details: Staphylococcus aureus
Procedure: as §1, §2

[7] = tested on: S. aureus Sa-1 (strain 1); test: as above; type: cell-based; details: Staphylococcus aureus
Procedure: as §1, §2

[8] = tested on: S. aureus Sa-12 (strain 11); test: as above; type: cell-based; details: Staphylococcus aureus
Procedure: as §1, §2

[9] = tested on: S. aureus Sa-9 (strain 8); test: as above; type: cell-based; details: Staphylococcus aureus
Procedure: as §1, §2

[10] = tested on: S. aureus Sa-3 (strain 3); test: as above; type: cell-based; details: Staphylococcus aureus
Procedure: as §1, §2

[11] = tested on: S. aureus Sa-14 (strain 13); test: as above; type: cell-based; details: Staphylococcus aureus, strain 13 (S. aureus Sa-14)
Procedure: as §1, §2

[12] = tested on: S. epidermidis Se-1 (strain 14); test: as above; type: cell-based; details: Staphylococcus epidermidis
Procedure: as §1, §2

[13] = tested on: S.aureus ATCC 700698 Sa-SARM (strain 15); test: as above; type: cell-based; details: Staphylococcus aureus
Procedure: as §1, §2

[14] = tested on: S. aureus Sa-10 (strain 9); test: as above; type: cell-based; details: Staphylococcus aureus
Procedure: as §1, §2

Gram Positive Bacteria = test: Silver-antibiotics interaction study, MicroScan (Example 4); type: cell-based, S. aureus; details: subinhibitory colloidal silver (½ or 1/10 MIC)
Procedure: The effect of subinhibitory concentrations of colloidal silver (namely, ½ and 1/10 dilution of the MIC obtained in Example 3) in the presence of different types of antibiotics was tested.
For this, an automated equipment MicroScan AutoScan 4 (Siemens) was used, using Gram negative (Becman Coulter NM37) and Gram positive (Becman Coulter PM28) cards.
Each of these broths served as inoculum for the cards with antibiotics (for each strain, thus 3 cards were prepared). • Incubating the plates with antibiotics (in presence and absence of silver) at 37° C. for 24 h. • Reading the cards by use of LabPro software, and interpretation of the obtained values of MIC (determine if the silver reduces the initial MCI of each antibiotic).

[15] = tested on: S. aureus Sa-10 (strain 9); test: Checkerboard synergy test collargol-vancomycin (Example 5); details: Staphylococcus aureus, read-out: MIC (product alone, Checkerboard test)
Procedure: as §3, §4, §5, §6

[16] = read-out: MIC (E-test) MH (without silver)
[17] = read-out: MIC (E-test) MH-1/10 MIC
[18] = read-out: MIC (E-test) MH-½ MIC

In the case of `CN[C@H](CC(C)C)C(=O)N[C@H]1C(=O)N[C@@H](CC(N)=O)C(=O)N[C@H]2C(=O)N[C@H]3C(=O)N[C@H](C(=O)N[C@H](C(=O)O)c4cc(O)cc(O)c4-c4cc3ccc4O)[C@H](O)c3ccc(c(Cl)c3)Oc3cc2cc(c3O[C@@H]2O[C@H](CO)[C@@H](O)[C@H](O)[C@H]2O[C@H]2C[C@](C)(N)[C@H](O)[C@H](C)O2)Oc2ccc(cc2Cl)[C@H]1O` [Vancomycin], the MIC [1] is reported as 1 µg/mL, the MIC [2] is reported as 1 µg/mL and the MIC [3] is reported as 1 µg/mL. It also gave an MIC [4] of 1 µg/mL, an MIC [5, 16] of 0.5 µg/mL and an MIC [5, 17] of 0.5 µg/mL. The MIC [5, 18] was 0.38 µg/mL, the MIC [6, 16] was 0.5 µg/mL and the MIC [6, 17] was 0.38 µg/mL. For the same compound, the MIC [6, 18] was 0.25 µg/mL, the MIC [7, 16] was 0.5 µg/mL and the MIC [7, 17] was 0.5 µg/mL. The MIC [7, 18] was 0.38 µg/mL, the MIC [8, 16] was 1 µg/mL and the MIC [8, 17] was 1 µg/mL. It also gave an MIC [8, 18] of 0.5 µg/mL, an MIC [9, 16] of 1 µg/mL and an MIC [9, 17] of 1 µg/mL. For the same compound, the MIC [9, 18] was 0.75 µg/mL, the MIC [10, 16] was 0.75 µg/mL and the MIC [10, 17] was 0.75 µg/mL. For the same compound, the MIC [10, 18] was 0.38 µg/mL, the MIC ([11]; MH agar with 1/10 MIC of colargol, read-out: MIC (E-test) MH-1/10 MIC) was 0.38 µg/mL and the MIC ([11]; MH agar with ½ MIC of colargol, read-out: MIC (E-test) MH-½ MIC) was 0.25 µg/mL. The MIC ([11]; MH agar without silver, read-out: MIC (E-test) MH (without silver)) was 0.38 µg/mL, the MIC [12, 16] was 0.75 µg/mL and the MIC [12, 17] was 0.5 µg/mL. The MIC [12, 18] was 0.38 µg/mL, the MIC ([13]; ATCC700698, read-out: MIC (E-test) MH (without silver)) was 1.5 µg/mL and the MIC ([13]; ATCC700698, read-out: MIC (E-test) MH-1/10 MIC) was 1 µg/mL. The MIC ([13]; ATCC700698, read-out: MIC (E-test) MH-½ MIC) was 1 µg/mL, the MIC [14, 16] was 1 µg/mL and the MIC [14, 17] was 1 µg/mL. For the same compound, the MIC [14, 18] was 0.38 µg/mL, the “Effect of silver on the strain's sensitivity to the antibiotic” value (Gram Positive Bacteria) was “improved sensitivity” and the MIC [15] was 1 µg/mL.
